# Assay results from patent publication US6566081B1, “Methods of identifying a compound which modulates the non-transcriptional non-map-kinase induced effects of steroid hormones” (The Brigham and Women's Hospital, Inc., priority 1999, dated 2003).
# Entries after “also recorded” stand apart in the source; their conditions may differ. Numbered stars: 1 amine (or outer) side, 2 acyl side, 3 side chain; on linkers, the order of the positions; unused ones are H or OH. Bridge positions count the residues as written; N and C are the ends. Square brackets hold non-standard residues; d marks the D form. Peptide text beside a SMILES is read from it. I, II: the chains in the order shown. Actinocin(9to1) = Cc1c2oc3c(C)ccc(C(=O)[*:1])c3nc-2c(C(=O)[*:2])c(N)c1=O; NMeV = CN[C@H](C(=O)O)C(C)C; Sar = CNCC(=O)O
# What was measured:
# eNOS = eNOS activity assay (conversion of [3H]-arginine to [3H]-citrulline) in treated human endothelial cells; format: cell-based; conditions: for effect on E2-stimulated eNOS activity, later phase (≥15 min) or 30 min / effect on E2-stimulated eNOS activity, initial phase (first 5-10 min): E2 10 nM, wortmannin 30 nM, genistein 50 μM, PD98059 5 μM; for effect on E2-stimulated eNOS activity, later phase (≥15 min) or 30 min: ICI 10 μM, actinomycin D 2 h pretreatment
# Procedure: Fetal bovine serum was deprived of estrogen by charcoal-stripping. Once grown to confluence the cells were replated on 1.5% gelatin-coated flasks at 20000 cells/cm^2. […] Cell number was assessed by direct cell counting of adherent cells, after trypsin detachment, in a Neubauer hemocytometer (VWR Scientifics). The percentage of cells excluding Trypan Blue after staining with the compound was taken as a measure of cell viability.
# Endothelial cells were grown to confluence on 55 cm^2 culture dishes, treated according to the indicated conditions, and harvested in ice-cold PBS containing 1 mM EDTA. The cell lysates were pelleted in a microfuge (2 minutes, 13000 rpm, 4° C.) and subsequently homogenized in a buffer containing 25 mM Tris-HCl, pH 7.4, 1 mM EDTA, 1 mM EGTA. eNOS activity was determined by measuring the conversion of [^3H]-arginine to [^3H]-citrulline. Rat cerebellum extracts, containing elevated amounts of neuronal NOS, were used as positive controls, while endothelial cell extracts incubated in the presence of the competitive eNOS inhibitor L-NAME (1 mM) served as negative controls.
# Human and bovine aortic endothelial cells were harvested enzymatically with Type IA collagenase (1 mg/mL).
# PI3-kinase = PI3-kinase assay on p85 immunoprecipitates of endothelial cell lysates; format: cell-based, human; conditions: for stimulation of PI3-kinase activity: 20 min, E2/αE2 10 nM, insulin 100 nM
# Procedure: PI3kinase activity in endothelial cell lysates was assayed using the borate thin layer chromatography method, as described.^34 Following a 6 h incubation in serum- and estrogen-deficient medium 199, endothelial cells were treated according to the indicated conditions, washed, and harvested in ice-cold lysis buffer (137 mM NaCl, 20 mM Tris-HCl, pH 7.4, 1 mM CaCl2, 1 mM Mg Cl2, 0.1 mM Na3VO4, 1% NP-40). After pelleting the cell debris, the supernatant was incubated for 1 hour at 4° C. with 5 μL of a rabbit antiserum directed against the p85 regulatory subunit of the PI3-kinase (Upstate Biotechnology, Lake Placid, N.Y.), and immunoprecipitated with the addition of 50 μL of a 1:1 slurry of protein A-agarose for 1 hour at 4° C. Following centrifugation, the immunoprecipitates were washed three times with lysis buffer, three times with 0.1 M Tris-HCl, pH 7.4, 5 mM LiCl, 0.1 mM Na3VO4, followed by two washes with 10 mM Tris-HCl, pH 7.4, 150 mM NaCl, 5 mM EDTA, 0.1 mM Na3VO4.
# The immunoprecipitates were then mixed with 50 μL Tris-HCl, pH 7.4, 150 mM NaCl, 5 mM EDTA, 20 μg of phosphatidylinositol (Sigma, Saint Louis, Mo.), 10 μL 100 mM MgCl2 and 5 μL of a 0.88 mM ATP, 20 mM MgCl2 solution, containing 30 μCi of [γ-^32P]ATP (3000 Ci/mmol; NEN Life Science Products, Boston, Mass.). […] The phospholipids were extracted with 160 μL of chloroform/methanol (1:1, v/v). 50 μL of the organic phase, containing the labeled PI3-kinase products were separated by borate thin layer chromatography on glass-backed Silica Gel 60 plates (EM Separations, Gibbstown, N.J.) pretreated with a solution containing 25 mM trans-1,2-diaminocyclohexane-N,N,N′N′-tetraacetic acid (CDTA, Sigma, Saint Louis, Mo.), 66% (v/v) ethanol and 0.06 N NaOH, dried for 1 hour and then baked at 100° C. for 15 minutes. The chromatography was developed with a solution containing 37.5% (v/v) methanol, 30% (v/v) chloroform, 22.5% (v/v) pyridine (Sigma, Saint Louis, Mo.), 1.33% (v/v) formic acid, […] boric acid and 8.5 mM butylated hydroxytoluene (Sigma, Saint Louis, Mo.), briefly dried and exposed to autoradiography.
# Akt/PKB [1] = assay: Immunoblotting of Akt phosphorylation (Thr 308, Ser 473); format: cell-based, human; conditions: E2/αE2 10 nM, insulin 100 nM, 20 min
# Procedure: After the different treatments, serum-starved endothelial cells were rinsed once with ice-cold PBS before addition of the lysis buffer (100 mM Tris-HCl, pH 6.8, 4% SDS, 20% glycerol, 1 mM sodium orthovanadate, 1 mM NaF, and 1 mM phenylmethylsulfonylfluoride) to the dishes on an ice tray. The cell lysates were scraped, boiled, and centrifuged for 2 min at 13000 rpm. Total cell lysates (40 μg of protein) and low range molecular weight markers (BIO-RAD, Hercules, Calif.) were separated by SDS-polyacrylamide gel electrophoresis (12% running, 4% stacking), electrophoretically transferred to polyvinylidene fluoride membranes (Immobilon P, 0.45 μm pore size) and incubated overnight at 4° C. with blocking solution (5% skim milk in TBS—0.1% Tween 20). Affinity-purified rabbit antibodies (0.4 μg of IgG/ml) vs. Akt, (Ser 473) phospho-Akt or (Thr 308) phospho-Akt (New England BioLabs, Beverly, Mass.), Erk1/2, (Tyr 204) phospho-Erk-1/-2 (Calbiochem, San Diego, Calif.) were incubated with the membranes overnight at 4° C. in TBS—0.1% Tween 20 containing 5% BSA. The blots were washed three times with TBS—0.1% Tween 20 and then treated with donkey anti-rabbit antibody (1:4000 dilution) coupled to horseradish peroxidase. Immunodetection was accomplished using the enhanced chemoluminescence kit (ECL Kit, Amersham Corp.).
# NO release = assay: Nitrite assay (NO accumulation from endothelial cells); format: cell-based, human; conditions: 30 min; E2/αE2 10 nM, insulin 100 nM, acetylcholine
# Procedure: NO accumulation from serum-starved endothelial cells was determined by a modified nitrite assay using 2, 3 diaminonaphtalene as described previously.^33 Fluorescence of 1-(H)-naphtotriazole was measured with excitation and emission wavelengths of 365 and 450 nm, respectively. Standard curves were constructed with known amounts of sodium nitrite. Nonspecific fluorescence was determined in the presence of LNMA (3 mM).
# Akt/PKB [2] = assay: Akt kinase assay (immunoprecipitated Akt, GSK-3 peptide); format: cell-based, human; conditions: E2/αE2 10 nM, insulin 100 nM, 20 min
# Procedure: Immunoprecipitated Akt kinase activity was assayed on endothelial cell lysates by using the Aktl/PKBα immunoprecipitation kinase assay kit (Upstate Biotechnology, Lake Placid, N.Y.). Endothelial cells were starved in phenol red-free199 medium with 0.4% estrogen-deprived FBS, treated, washed, and then harvested in ice-cold Buffer A (50 mM Tris-HCl, pH 7.5, 1 mM EDTA, 1 mM EGTA, […] Na3VO4, 0.1% (v/v) 2-mercaptoethanol, 1% Triton X-100, 50 mM sodium fluoride, 5 mM sodium pyrophosphate, 10 mM sodium glycerophosphate, 0.1 mM PMSF, 1 μg/mL of aprotinin, pepstatin, leupeptin and 1 μM microcystin). The cleared cell lysates were incubated for 1 hour at 4° C. with 4 μg/tube of anit-Akt1/PKBα PH domain immunoaffinity purified sheep IgG, after which 50 μL of a 1:1 (v/v) protein G-agarose slurry was added for an additional hour of incubation at 4° C. After centrifugation, the immunoprecipitates were washed three times with Buffer A containing 0.5 M NaCl, then two times with Buffer B (50 mM Tris-HCl, pH 7.5, 0.03% (w/v) Brij-35, 0.1 mM EGTA, 0.1% (v/v) 2-mercaptoethanol), and finally twice with 1×Assay Buffer (20 mM MOPS, pH 7.2, 25 mM β-glycerol phosphate, 5 mM EGTA, 1 mM Na3VO4, 1 mM DTT).
# The immunoprecipitates were resuspended in 10 μL of ice-cold 1×Assay Buffer, and were sequentially added: 10 μL of 40 μM PKA inhibitor peptide ([…]-NH2—corresponding to residues 7-23 of human PKA inhibitor), 10 μL of Akt/PKB specific substrate peptide (100 μM) (RPRAATF—corresponding to the phosphorylation site of glycogen synthase kinase-3, specifically targeted by Akt/PKB, but not by other protein kinases such as Rsk-2 and p70 S6 kinase), and 10 μL of [γ-^32P]ATP stock solution (1×Assay Buffer with 500 μM ATP, 75 mM MgCl2, containing 1 μCi/μL [γ^32-P]ATP, 3000 Ci/mmol). The reaction was incubated at 37° C. for 30 minutes, after which 40 μL of the supernatant was mixed with 20 μL of 40% TCA and incubated for 5 minutes at room temperature. 40 μL of each final fraction were spotted onto the center of a 2 cm×2 cm P81 phosphocellulose paper. The assay squares were washed three times with 0.75% phosphoric acid for five minutes at room temperature, then once with acetone. The squares were then transferred to vials containing a liquid scintillation cocktail and read in a scintillation counter. Blank reaction for the detection of the unspecific background were performed by substituting the cell lysate with Buffer A at the beginning of the procedure, and aspecific endogenous phosphorylation of proteins in the sample extract was estimated by substituting in some samples 1×Assay Buffer for the Akt/PKB specific substrate peptide.
# ER-α / PI3-kinase p85α = biological target: T1, ER-α / PI3-kinase p85α (Homo sapiens, UniProt P03372); assay: ER-α immunoprecipitation: co-precipitated p85α and associated PI3-kinase activity; format: cell-based; conditions: ICI 10 μM, wortmannin, tamoxifen 1 μM, PD 98059 5 μM, actinomycin D 5 μM
# T1 construct: endogenous in cells; host or cells: human endothelial cells (HSVEC), anti-ERα immunoprecipitate
# T1 sequence (P03372 1-595): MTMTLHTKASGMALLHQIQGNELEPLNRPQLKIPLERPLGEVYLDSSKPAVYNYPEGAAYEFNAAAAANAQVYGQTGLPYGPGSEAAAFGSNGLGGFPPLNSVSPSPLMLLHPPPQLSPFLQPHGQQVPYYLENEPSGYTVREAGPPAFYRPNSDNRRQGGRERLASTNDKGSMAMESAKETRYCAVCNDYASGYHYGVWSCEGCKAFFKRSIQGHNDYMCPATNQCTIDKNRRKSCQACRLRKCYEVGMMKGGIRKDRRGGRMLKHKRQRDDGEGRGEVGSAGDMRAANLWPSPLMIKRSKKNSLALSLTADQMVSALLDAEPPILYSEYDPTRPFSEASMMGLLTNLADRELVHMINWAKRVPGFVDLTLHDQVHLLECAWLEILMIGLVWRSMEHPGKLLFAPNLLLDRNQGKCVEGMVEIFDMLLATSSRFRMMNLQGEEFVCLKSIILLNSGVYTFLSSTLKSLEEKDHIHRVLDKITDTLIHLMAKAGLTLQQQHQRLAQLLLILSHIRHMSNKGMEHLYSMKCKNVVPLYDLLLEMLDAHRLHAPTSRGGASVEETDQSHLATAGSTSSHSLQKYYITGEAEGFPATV
SMILES,"stimulation of eNOS activity by the substance alone (eNOS; E2/αE2 10 nM, insulin 100 nM, 30 min)",stimulation of PI3-kinase activity (PI3-kinase),stimulation of PI3-kinase activity (PI3-kinase; listed as αE2),Akt Ser 473 phosphorylation (Akt/PKB [1]),Akt threonine (Thr 308) phosphorylation (Akt/PKB [1]),stimulation of NO release / production (nitrite accumulation) (NO release),stimulation of Akt kinase activity (words) (Akt/PKB [2]),stimulation of Akt kinase activity (words) (Akt/PKB [2]; listed as 17a-estradiol),"effect on E2-stimulated eNOS activity, later phase (≥15 min) or 30 min (eNOS)","effect on insulin-induced eNOS activity (eNOS; insulin 100 nM, 30 min)","effect on basal eNOS activity, substance alone (eNOS; no E2)",effect on E2-stimulated ER-α-associated PI3-kinase activity (ER-α / PI3-kinase p85α),"effect on E2-stimulated eNOS activity, later phase (≥15 min) or 30 min (eNOS; listed as Genistein)","effect on E2-stimulated eNOS activity, initial phase (first 5-10 min) (eNOS)","effect on E2-stimulated eNOS activity, initial phase (first 5-10 min) (eNOS; listed as Genistein)","effect on E2-induced PI3-kinase activation (PI3-kinase; E2 10 nM 20 min, ICI 10 μM, wortmannin 30 nM)"
C[C@]12CC[C@@H]3c4ccc(O)cc4CC[C@H]3[C@@H]1CC[C@H]2O [17α-estradiol],no effect; also recorded: inability,ineffective; also recorded: inability,lack,ineffective,ineffective; also recorded: minimal increase,very low effect; also recorded: inability,ineffective,small increase,,,,,,,,
"Cc1c2oc3c(C)ccc(C(=O)N[C@@H]4C(=O)N[C@H](C(C)C)C(=O)N5CCC[C@H]5C(=O)N(C)CC(=O)N(C)[C@@H](C(C)C)C(=O)O[C@@H]4C)c3nc-2c(C(=O)N[C@@H]2C(=O)N[C@H](C(C)C)C(=O)N3CCC[C@H]3C(=O)N(C)CC(=O)N(C)[C@@H](C(C)C)C(=O)O[C@@H]2C)c(N)c1=O [actinomycin D] (I: T[dV]P[Sar][NMeV] / II: T[dV]P[Sar][NMeV]; ester I:1-I:C, II:1-II:C; linker I:N-II:N via Actinocin(9to1))",,,,,,,,,did not affect; also recorded: no effect,did not affect; also recorded: no inhibitory effect,nor had any effects by itself; also recorded: no effect,not,,,,
O=c1c(-c2ccc(O)cc2)coc2cc(O)cc(O)c12 [genistein],,,,,,,,,only minimally affected; also recorded: not the later phase; also recorded: little or no inhibitory effect,,,,do not block,able to block; also recorded: significantly blocked,blunt,only minimally affected
